Patent US20080038809A1, “ISOLATED LECTIN POLYPEPTIDES CONSISTING OF TRUNCATED […] UDP-GalNAc:POLYPEPTIDE N- ACETYLGALACTOSAMINYLTRANSFERASES” (GLYCOZYM APS, priority 2002, published 2008)
Entries after “also recorded” stand apart in the source; their conditions may differ.

Assays:
[1] = test system: GalNAc-T2 and -T4 secreted soluble enzymes as well as lectin domains; assay: Inhibition of GalNAc-transferase lectin binding to GalNAc-glycopeptides, statements on GalNAc-T2 and -T4 together; design: species or system human; details: enzymes and isolated lectins
Experimental: (§1) Direct binding ELISA assay was developed as follows: Polystyrene microtiter plates (Maxisorb, Nunc, Denmark) were coated with peptides or enzymatically glycosylated glycopeptides in PBS overnight at 4° C. Plates were washed and blocked with 0.1% Tween20 and 0.2% BSA in PBS for 1 h at room temperature, followed by incubation with biotinylated proteins in PBS with 0.05% Tween20 for 2 h at room temperature. After four washes with PBS, plates were incubated with 1:2,000 dilution streptavidin-HRP (Sigma) in PBS for 30 min at room temperature and washed four times with PBS. Development was performed with 0.5 mg/ml o-phenylenediamine and 0.02% H2O2 at room temperature for 15 min, and reaction stopped by adding 100 μl/well of 0.5 N H2SO4. Competitive inhibition assays were done at end-point titers of GalNAc-transferase proteins with one hour preincubations with inhibitor.
Lectins and antibodies to carbohydrates usually recognize the anomeric configuration of the sugar structures they bind.
(§2) Inhibition experiments were used to further define the binding specificity of GalNAc-T2 and -T4 secreted soluble enzymes as well as lectin domains compared to Helix Pomatia lectin (Table IV).

[2] = test system: MUC1 secreted by wild type CHO/MUC1sol-cloneC4; assay: Secreted MUC1 in medium, western blot; assay type: cell-based, Chinese Hamster; details: 1-2 mM, compared to control treated or non-treated cells
Excerpt: (§3) Because GalNAcα-benzyl exerts separate effects on O-glycan processing and mucin expression, the use of the novel selective inhibitor of mucin expression, GalNAcβ-benzyl, allow analysis of mucin expression and secretion in different cell line models. Examples of human cell lines (available from ATCC, USA) expressing and secreting mucins are without limitations LS174T, HT29, Colo205, CALU, MCF7, T47D, NCI-H292, and A549. Most human adenocarcinoma cell lines express and secret mucins and analysis with antibodies to detect protein expression or probes to detect mRNA can reveal the types and quantities of mucins. […] This and other cell lines can be used to treat with 2 mM GalNAcβ-benzyl. In this Example we used wild type CHO/MUC1sol-cloneC4 and western blot analysis of medium of cells treated with 1-2 mM GalNAcα-benzyl, GalNAcβ-benzyl, or the control GlcNAcα-benzyl. […] The inhibitory effect on mucin secretion can be quantified by a number of assays known to the skilled in the art including western blot, ELISA, gelfiltration, immunocapture, and other assays.

MUC5AC in HT29MTX cells = assay: Immuno-fluorescence staining of MUC5AC with CLH2 (FIG. 18); assay type: cell-based, human; details: 5 mM, continuous culture
Excerpt: (§4) FIG. 18 illustrates immuno-fluorescence staining of HT29MTX cells treated with inhibitors as indicated and stained with the anti-MUC5AC monoclonal antibody, CLH2.
In order to evaluate GalNAcβ-benzyl as an inhibitor of mucin glycosylation and secretion we used the cultured colon carcinoma cells of mucin secreting phenotypes: HT-29 metotrexate (MTX) cells selected from the HT-29 cell line by culture in the presence of MTX (kind gift from G. Huet, France). The HT-29 MTX cells were selected to yield a goblet cell like phenotype with constitutive production of MUC5AC. In order to ensure proper goblet cell differentiation the HT29MTX cell line were continuously grown up to 21 days in the presence of 5 mM GalNAcα-benzyl, 5 mM GalNAcβ-benzyl, 5 mM GlcNAcα-benzyl and without inhibitor using culture conditions as described in Hennebicq-Reig et al. (Permanent exposure of mucin-secreting HT-29 cells to benzyl-N-acetyl-alpha-D-galactosaminide induces abnormal O-glycosylation of mucins and inhibits constitutive and stimulated MUC5AC secretion. Biochem J. 1998; 334:283-95). At 7, 14 and 21 days of continuous culture, media was collected and cells were fixed in 3% paraformaldehyde and stained for the presence of MUC5AC and specific carbohydrate structures using immuno-histochemistry with the following monoclonal antibodies: CLH2 recognizing MUC5AC (Reis C. et al. Immunohistochemical study of MUC5AC expression in human gastric carcinomas using a novel monoclonal antibody. Int. J. Cancer. 1997; 74:112-21), 1E3 recognizing Tn (GalNAcα linked to serine or threonine), 3C9 recognizing T (Galβ1-3GalNAcα linked to serine or threonine, and 3F1 recognizing Sialyl-Tn (NeuAcα2-6GalNAcα linked to serine or threonine. […] Furthermore the viscosity of the media from cells with and without inhibitor was evaluated using viscosity micro-measurement.

[3] = molecular target: T1, human GalNAc-T2 (UDP-GalNAc:polypeptide N-acetylgalactosaminyltransferase T2) isolated truncated lectin domain (T2ld), HIS-tagged, amino acid residues 408-571 o (Homo sapiens, UniProt Q10471); assay type: binding
T1 sequence (Q10471 408-571): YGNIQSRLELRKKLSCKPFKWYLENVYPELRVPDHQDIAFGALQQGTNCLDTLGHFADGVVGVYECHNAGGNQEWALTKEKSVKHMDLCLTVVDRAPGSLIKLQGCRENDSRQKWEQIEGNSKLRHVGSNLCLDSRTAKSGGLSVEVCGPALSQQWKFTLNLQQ
Excerpt: In order to minimize the size and functional complexity of GalNAc-transferase lectins to be used as probes for binding studies, we used multiple sequence alignment analysis to predict and design suitable expression constructs for isolated lectin domains (FIG. 2). In the present invention a direct binding assay was developed using isolated lectin domains of GalNAc-T4 and -T2 with minimal size (FIG. 5). […] The lectin Helix Pomatia (HP) was used as a control plant lectin with known binding specificity for […].
as §1
In binding studies using lectins without biotinylation antibodies to the HIS-tag and the T7-tag, or in some experiments antibodies raised to GalNAc-T2 and -T4 enzymes were used to detect binding.
as §2
The ligand target used in this Example is a GalNAc-MUC1 glycopeptide produced enzymatically from synthetic peptides.

[4] = test system: secreted MUC1, wild type CHO/MUC1sol-cloneC4; assay: MUC1 secretion by western blot of medium; assay type: cell-based, Chinese hamster (CHO cells); human MUC1; details: 1-2 mM
Excerpt: as §3

[5] = test system: intracellular MUC5AC, HT29MTX cells; assay: Intracellular MUC5AC by immunofluorescence staining of HT29MTX cells; assay type: cell-based, human; details: 5 mM, CLH2 antibody
Excerpt: as §4
In order to evaluate GalNAcβ-benzyl as an inhibitor of mucin glycosylation and secretion we used the cultured colon carcinoma cells of mucin secreting phenotypes: HT-29 metotrexate (MTX) cells selected from the HT-29 cell line by culture in the presence of MTX (kind gift from G. Huet, France). The HT-29 MTX cells were selected to yield a goblet cell like phenotype with constitutive production of MUC5AC. In order to ensure proper goblet cell differentiation the HT29MTX cell line were continuously grown up to 21 days in the presence of 5 mM GalNAcα-benzyl, 5 mM GalNAcβ-benzyl, 5 mM GlcNAcα-benzyl and without inhibitor using culture conditions as described in Hennebicq-Reig et al. (Permanent exposure of mucin-secreting HT-29 cells to benzyl-N-acetyl-alpha-D-galactosaminide induces abnormal O-glycosylation of mucins and inhibits constitutive and stimulated MUC5AC secretion. Biochem J. 1998; 334:283-95). […] Furthermore the viscosity of the media from cells with and without inhibitor was evaluated using viscosity micro-measurement.

inhibition of GalNAc-T2 and -T4 lectin mediated binding, in words [1]	storage phenotype (MUC5AC in HT29MTX cells)	inhibition of GalNAc-T2 lectin domain binding (in words) [3]	Structure (SMILES)	secreted MUC1 in medium [2]	intracellular staining of MUC5AC (MUC5AC in HT29MTX cells)	inhibition of secreted MUC1 [4]	intracellular staining of MUC5AC / storage phenotype [5]
equal inhibition	induced a storage phenotype		CC(=O)N[C@H]1[C@@H](OCc2ccccc2)O[C@H](CO)[C@H](O)[C@@H]1O [BzlαGalNAc, benzyl-N-acetyl-alpha-D-galactosaminide]	inhibition	increased intracellular staining		
		inhibited binding to the same degree	CC(=O)N[C@H]1[C@@H](OCc2ccccc2)O[C@H](CO)[C@H](O)[C@@H]1O [GalNAcα-benzyl, benzyl-N-acetyl-alpha-D-galactosaminide]			inhibition of secreted MUC1	storage phenotype with increased intracellular staining of MUC5AC
equal inhibition	did not lead to any storage disease	inhibited binding to the same degree	CC(=O)N[C@H]1[C@H](OCc2ccccc2)O[C@H](CO)[C@H](O)[C@@H]1O [GalNAcβ-benzyl]	inhibition	clearly diminished intracellular staining	inhibition of secreted MUC1	did not lead to a storage disease phenotype; also recorded: clearly diminished intracellular staining of MUC5AC
